Source: patent US9102698B2 (CAN-FITE BIOPHARMA LTD., priority 2007, dated 2015)

Legend:
[1] = Solubility study on 3-iodobenzylamine hydrochloride in synthesis solvents; type: physicochemical
Excerpt: 3-Iodobenzylamine hydrochloride recrystallized from protic solvents but was insoluble in aprotic organic solvents. No purity enhancement was observed during hot (reflux) slurries in aprotic organic solvents.

[2] = test system: tumors (melanoma, colon carcinoma, prostate carcinoma); conditions: orally administered; syngeneic (melanoma, colon carcinoma) and xenograft (colon and prostate carcinoma) mouse models; cited from earlier work
[3] = test system: neutrophils; conditions: oral, mice, cited from earlier work
[4] = test system: colon carcinoma; conditions: oral, nude mice; cited from earlier work
[5] = test system: TNF-α and MIP-1α; conditions: in vitro; cited from earlier work
[6] = test system: collagen and adjuvant induced arthritis (AIA); conditions: experimental animal models; cited from earlier work
[7] = test system: A3AR; conditions: synovial and peripheral blood mononuclear cells of AIA rats, upon IB-MECA treatment; cited from earlier work

Row | Compound | Behavior at 21 C. ([1]; IPA, 10 solvent volumes) | Behavior at reflux ([1]; IPA, 10 solvent volumes) | Behavior at 21 C. ([1]; IPAc, 10 solvent volumes) | Behavior at reflux ([1]; IPAc, 10 solvent volumes) | Behavior at 21 C. ([1]; MeCN, 5 solvent volumes) | Behavior at reflux ([1]; MeCN, 5 solvent volumes) | Behavior at 21 C. ([1]; MeOH, 1 solvent volume) | Behavior at reflux ([1]; MeOH, 1 solvent volume) | Behavior at 21 C. ([1]; THF, 10 solvent volumes) | Behavior at reflux ([1]; THF, 10 solvent volumes) | development of tumors [2] | cytotoxic-induced myelo-toxicity [3] | production of neutrophils ([3]; via an increase in G-CSF) | neutrophil recovery after cytotoxic drug therapy [4] | progression of colon carcinoma [4] | production of MIP-1α [5] | production of TNF-α [5] | development of collagen and adjuvant induced arthritis [6] | A3AR level [7]
1 | Cl.NCc1cccc(I)c1 [3-iodobeuzylamine hydrochloride, 3-iodobenzylamine hydrochloride] | Insoluble | Soluble | Insoluble | Insoluble | Insoluble | Insoluble | Insoluble | Soluble | Insoluble | Insoluble |  |  |  |  |  |  |  |  | 
2 | CNC(=O)[C@H]1O[C@@H](n2cnc3c(NCc4cccc(I)c4)ncnc32)[C@H](O)[C@@H]1O [IB-MECA, 1-deoxy-1-(6-{[(3-iodophenyl)methyl]amino}9H-purine-9-yl)-N-methyl-β-d-ribofuranuronamide] |  |  |  |  |  |  |  |  |  |  | inhibits the development of tumors | protects against cytotoxic-induced myelo-toxicity | stimulates the production of neutrophils | stimulates neutrophil recovery | inhibits progression of colon carcinoma | inhibited | inhibited | preventing the development | down regulates
